Test results: article PMC6272448, “Synthesis, ^18F-Radiolabelling and Biological Characterization of Novel Fluoroalkylated Triazine Derivatives for in Vivo Imaging of Phosphodiesterase 2A in Brain via Positron Emission Tomography” (Molecules, 2015)

Biological target: T1, PDE2A (Mus musculus, UniProt Q922S4)
T1 construct: from tissue; host or cells: living female CD-1 mice (brain, in vivo)
T1 sequence (Q922S4 1-939): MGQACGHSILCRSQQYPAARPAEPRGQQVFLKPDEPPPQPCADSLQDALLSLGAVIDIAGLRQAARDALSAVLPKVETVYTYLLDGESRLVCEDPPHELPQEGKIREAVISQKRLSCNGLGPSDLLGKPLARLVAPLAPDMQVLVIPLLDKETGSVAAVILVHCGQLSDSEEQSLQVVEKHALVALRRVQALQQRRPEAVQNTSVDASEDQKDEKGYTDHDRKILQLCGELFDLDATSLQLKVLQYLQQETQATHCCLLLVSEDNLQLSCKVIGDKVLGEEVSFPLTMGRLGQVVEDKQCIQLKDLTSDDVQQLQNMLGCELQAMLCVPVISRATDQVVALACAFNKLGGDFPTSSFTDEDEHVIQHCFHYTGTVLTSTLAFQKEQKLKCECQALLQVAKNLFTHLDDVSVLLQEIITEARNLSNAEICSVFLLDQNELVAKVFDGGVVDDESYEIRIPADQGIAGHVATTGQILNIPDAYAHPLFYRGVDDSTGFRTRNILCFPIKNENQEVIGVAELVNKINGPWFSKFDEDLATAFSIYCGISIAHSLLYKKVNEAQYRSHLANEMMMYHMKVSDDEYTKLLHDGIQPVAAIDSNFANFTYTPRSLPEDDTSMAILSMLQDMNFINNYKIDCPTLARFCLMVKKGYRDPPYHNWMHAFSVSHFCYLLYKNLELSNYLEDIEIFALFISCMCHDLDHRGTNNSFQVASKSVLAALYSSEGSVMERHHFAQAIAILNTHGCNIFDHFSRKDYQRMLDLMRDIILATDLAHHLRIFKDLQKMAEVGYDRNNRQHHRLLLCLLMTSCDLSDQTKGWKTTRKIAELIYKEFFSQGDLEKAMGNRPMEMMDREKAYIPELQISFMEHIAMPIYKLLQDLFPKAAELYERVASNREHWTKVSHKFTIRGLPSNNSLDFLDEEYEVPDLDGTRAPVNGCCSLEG
Experiment: small-animal PET/MR baseline studies in mice
Assay type: in vivo
Conditions: CD-1 mice, i.v. 9.7 ± 1.3 MBq, 0-55 min p.i., n = 4
Procedure: For PET/MR baseline studies of [^18F]TA3 in anaesthetized CD-1 mice, the radioligand was injected intravenously (9.7 ± 1.3 MBq, SAEOS ~70 GBq/µmol, n = 4), and whole body scans were performed for 60 min in listmode with a Mediso nanoScan PET/MR scanner followed by dynamic reconstruction. Time-activity curves (TACs) were generated for regions of interest such as whole brain, striatum, and cerebellum (Figure 8).
Female CD-1 mice (n = 4; age: 8 weeks; weight: 28.8 ± 1.2 g; supplier: Medizinisch-Experimentelles Zentrum Leipzig, Leipzig, Germany) were housed under a 12 h:12 h light-dark cycle at 26 °C in a vented animal cabinet. The animals received an injection of 9.7 ± 1.3 MBq of [^18F]TA3 into the tail vein followed by a 60 min PET/MR scan (Mediso nanoScan®, Budapest, Hungary). Each PET image was corrected for random coincidences, dead time, scatter and attenuation (AC), based on a whole body (WB) MR scan.
The reconstruction parameters for the list mode data are: 3D-ordered subset expectation maximization (OSEM), 4 iterations, 6 subsets, energy window: 400–600 keV, coincidence mode: 1–5, ring difference: 81. […]
The respective brain regions were identified using the MR information from the GRE scan. The activity data is expressed as mean standardized uptake value (SUV) of the overall ROI.

`COc1ccc2nnc3c(C)nc(-c4cc(OCCC[18F])ccc4F)n3c2n1` [[^18F]TA3] was tested, and the “time-activity curve in cerebellum” value was “constantly increased uptake in the cerebellum” and the “time-activity curve in striatum” value was “fast wash out of activity from the striatum”.
